{"source": "patent US20230053540A1", "about": "“TREATMENT OF LIVER INJURY” (Massachusetts Institute of Technology, priority 2019, published 2023)", "test_system": "hepatocytes", "assay": "Seq-Well scRNA-Seq of hepatocytes after APAP overdose (signature scores, DEG vs untreated)", "type": "in vivo, mouse", "settings": "APAP vs UT", "data": [{"smiles": "CC(=O)Nc1ccc(O)cc1", "note": "[APAP, acetaminophen]", "values": [{"measurement": "Apobec1 logFC", "result": 0.3051}, {"measurement": "Apol7a logFC", "result": "−0.4923"}, {"measurement": "App logFC", "result": 0.3618}, {"measurement": "Arcn1 logFC", "result": 0.3278}, {"measurement": "Arl4d logFC", "result": "−0.5072"}, {"measurement": "Asgr1 logFC", "result": "−0.3857"}, {"measurement": "Atox1 logFC", "result": "−0.4462"}, {"measurement": "Atp5e logFC", "result": "−0.6502"}, {"measurement": "Atp5f1 logFC", "result": "−0.5171"}, {"measurement": "Atp5j2 logFC", "result": "−0.5131"}, {"measurement": "Atp5j logFC", "result": "−0.4837"}, {"measurement": "Atp8b1 logFC", "result": 0.3628}, {"measurement": "Atxn1 logFC", "result": 0.3049}, {"measurement": "BC005537 logFC", "result": 0.3543}, {"measurement": "Baz1a logFC", "result": 0.2596}, {"measurement": "Bcl3 logFC", "result": 0.289}, {"measurement": "Blvrb logFC", "result": "−0.5451"}, {"measurement": "Btg1 logFC", "result": 0.458}, {"measurement": "Btg2 logFC", "result": 0.8321}, {"measurement": "C1qa logFC", "result": 0.5148}, {"measurement": "C1qc logFC", "result": 0.5861}, {"measurement": "C8a logFC", "result": 0.3337}, {"measurement": "Calm1 logFC", "result": 0.4131}, {"measurement": "Calu logFC", "result": 0.3041}, {"measurement": "Canx logFC", "result": 0.3434}, {"measurement": "Cat logFC", "result": 0.2626}, {"measurement": "Cd44 logFC", "result": 0.3037}, {"measurement": "Cd53 logFC", "result": 0.2656}, {"measurement": "Cd74 logFC", "result": 0.4539}, {"measurement": "Cd97 logFC", "result": 0.3458}, {"measurement": "Cd302 logFC", "result": "−0.5499"}, {"measurement": "Cebpb logFC", "result": "−0.4716"}, {"measurement": "Ces1e logFC", "result": 0.2656}, {"measurement": "Ces3b logFC", "result": "−0.3664"}, {"measurement": "Cfh logFC", "result": 0.4009}, {"measurement": "Cfhr2 logFC", "result": "−0.4485"}, {"measurement": "Cfi logFC", "result": 0.2516}, {"measurement": "Cfp logFC", "result": 0.3562}, {"measurement": "Chchd2 logFC", "result": "−0.5525"}, {"measurement": "Chic2 logFC", "result": 0.4198}, {"measurement": "Cldn14 logFC", "result": 0.3645}, {"measurement": "Clpx logFC", "result": "−0.4047"}, {"measurement": "Cltc logFC", "result": 0.785}, {"measurement": "Cmah logFC", "result": 0.3616}, {"measurement": "Cmbl logFC", "result": "−0.4427"}, {"measurement": "Cml1 logFC", "result": "−0.6142"}, {"measurement": "Cml2 logFC", "result": "−0.3979"}, {"measurement": "Copa logFC", "result": 0.3451}, {"measurement": "Cox5b logFC", "result": "−0.4988"}, {"measurement": "Cox7a2 logFC", "result": "−0.6503"}, {"measurement": "Cox7b logFC", "result": "−0.6422"}, {"measurement": "Cpb2 logFC", "result": 0.3222}, {"measurement": "Cps1 logFC", "result": 0.3245}, {"measurement": "Crp logFC", "result": "−0.5069"}, {"measurement": "Csde1 logFC", "result": 0.3269}, {"measurement": "Ctsd logFC", "result": 0.2579}, {"measurement": "Ctsl logFC", "result": 0.5301}, {"measurement": "Cxadr logFC", "result": 0.6985}, {"measurement": "Cyb5b logFC", "result": "−0.4233"}, {"measurement": "Cyb5r3 logFC", "result": 0.339}, {"measurement": "Cyp4a12a logFC", "result": "−0.4568"}, {"measurement": "Cytip logFC", "result": 0.2676}, {"measurement": "Dcxr logFC", "result": "−0.4409"}, {"measurement": "Ddt logFC", "result": "−0.5222"}, {"measurement": "Ddx3x logFC", "result": 0.6569}, {"measurement": "Ddx5 logFC", "result": 0.5229}, {"measurement": "Ddx21 logFC", "result": 0.7314}, {"measurement": "Dgkd logFC", "result": 0.3708}, {"measurement": "Dhrs3 logFC", "result": "−0.4676"}, {"measurement": "Dio1 logFC", "result": "−0.5453"}, {"measurement": "Dkc1 logFC", "result": 0.3258}, {"measurement": "Dnajc12 logFC", "result": 0.3221}, {"measurement": "Dot1l logFC", "result": 0.397}, {"measurement": "Dst logFC", "result": 0.511}, {"measurement": "Dstn logFC", "result": 0.3243}, {"measurement": "Dusp6 logFC", "result": 0.5916}, {"measurement": "Dusp16 logFC", "result": 0.4605}, {"measurement": "Eaf1 logFC", "result": 0.5218}, {"measurement": "Ebpl logFC", "result": "−0.4503"}, {"measurement": "Eef1b2 logFC", "result": "−0.3173"}, {"measurement": "Eef2 logFC", "result": 0.5259}, {"measurement": "Efna1 logFC", "result": 0.3361}, {"measurement": "Eif1a logFC", "result": 0.7953}, {"measurement": "Eif4g1 logFC", "result": 0.3749}, {"measurement": "Epas1 logFC", "result": 0.7758}, {"measurement": "Epb4.1 logFC", "result": 0.5628}, {"measurement": "Errfi1 logFC", "result": 0.3937}, {"measurement": "Etf1 logFC", "result": 0.5594}, {"measurement": "Etfb logFC", "result": "−0.3655"}, {"measurement": "Etnk1 logFC", "result": 0.3521}, {"measurement": "F5 logFC", "result": 0.3006}, {"measurement": "Fabp2 logFC", "result": "−0.6156"}, {"measurement": "Fcgr3 logFC", "result": 0.3082}, {"measurement": "Fcna logFC", "result": 0.3774}, {"measurement": "Fdx1 logFC", "result": "−0.6234"}, {"measurement": "Fgl2 logFC", "result": 0.2818}, {"measurement": "Fkbp5 logFC", "result": 0.5161}, {"measurement": "Fndc3b logFC", "result": 0.4096}, {"measurement": "Fos logFC", "result": 0.432}, {"measurement": "Fxyd1 logFC", "result": "−0.4799"}, {"measurement": "Gamt logFC", "result": "−0.5603"}, {"measurement": "Gas5 logFC", "result": "−0.3362"}, {"measurement": "Gchfr logFC", "result": "−0.5548"}, {"measurement": "Gclm logFC", "result": 0.2699}, {"measurement": "Gjb2 logFC", "result": 0.6082}, {"measurement": "Glyat logFC", "result": "−0.6477"}, {"measurement": "Gm4076 logFC", "result": "−0.3255"}, {"measurement": "Gm4952 logFC", "result": "−0.4987"}, {"measurement": "Gm5096 logFC", "result": "−0.3631"}, {"measurement": "Gm23388 logFC", "result": 0.4162}, {"measurement": "Gm24187 logFC", "result": 0.4319}, {"measurement": "Gm26917 logFC", "result": 0.8237}, {"measurement": "Gnl2 logFC", "result": 0.3905}, {"measurement": "Gnl3 logFC", "result": 0.576}, {"measurement": "Gpt2 logFC", "result": 0.5391}, {"measurement": "Gsta2 logFC", "result": 0.2522}, {"measurement": "Gstm3 logFC", "result": "−0.5986"}, {"measurement": "Gstz1 logFC", "result": "−0.4641"}, {"measurement": "Gulo logFC", "result": "−0.8017"}, {"measurement": "H2-Aa logFC", "result": 0.3279}, {"measurement": "H2-Ab1 logFC", "result": 0.461}, {"measurement": "H2-Eb1 logFC", "result": 0.3279}, {"measurement": "H3f3b logFC", "result": 0.7029}, {"measurement": "Haao logFC", "result": "−0.5912"}, {"measurement": "Hacl1 logFC", "result": "−0.7069"}, {"measurement": "Hadha logFC", "result": 0.2509}, {"measurement": "Hal logFC", "result": 0.2801}, {"measurement": "Hao1 logFC", "result": 0.323}, {"measurement": "Hc logFC", "result": 0.3679}, {"measurement": "Heatr1 logFC", "result": 0.406}, {"measurement": "Hebp1 logFC", "result": "−0.6354"}, {"measurement": "Hes6 logFC", "result": "−0.5613"}, {"measurement": "Hibadh logFC", "result": "−0.4994"}, {"measurement": "Hic2 logFC", "result": 0.2898}, {"measurement": "Hif1a logFC", "result": 0.5169}, {"measurement": "Hint2 logFC", "result": "−0.4243"}, {"measurement": "Hook1 logFC", "result": 0.3274}, {"measurement": "Hpd logFC", "result": "−0.5182"}, {"measurement": "Hpgd logFC", "result": "−0.3878"}, {"measurement": "Hpx logFC", "result": "−0.3033"}, {"measurement": "Hs3st3b1 logFC", "result": 0.343}, {"measurement": "Hsd17b2 logFC", "result": "−0.5959"}, {"measurement": "Hspa13 logFC", "result": 0.3548}, {"measurement": "Hspb8 logFC", "result": 0.6339}, {"measurement": "Hspe1 logFC", "result": "−0.4807"}, {"measurement": "Ibtk logFC", "result": 0.3311}, {"measurement": "Ier5 logFC", "result": 0.289}, {"measurement": "Ifitm3 logFC", "result": "−0.4251"}, {"measurement": "Igfbp1 logFC", "result": 1.059}, {"measurement": "Igfbp2 logFC", "result": "−0.3451"}, {"measurement": "Il6st logFC", "result": 0.3335}, {"measurement": "Il13ra1 logFC", "result": 0.303}, {"measurement": "Inmt logFC", "result": "−0.731"}, {"measurement": "Insig1 logFC", "result": 0.4655}, {"measurement": "Ipo7 logFC", "result": 0.3246}, {"measurement": "Itgb2 logFC", "result": 0.2723}, {"measurement": "Itih2 logFC", "result": 0.5011}, {"measurement": "Jak1 logFC", "result": 0.6039}, {"measurement": "Jmjd1c logFC", "result": 0.6366}, {"measurement": "Kctd3 logFC", "result": 0.2608}, {"measurement": "Keg1 logFC", "result": "−0.8245"}, {"measurement": "Klf15 logFC", "result": "−0.4518"}, {"measurement": "Kmo logFC", "result": "−0.3844"}, {"measurement": "Lactb2 logFC", "result": "−0.5965"}, {"measurement": "Laptm5 logFC", "result": 0.3382}, {"measurement": "Lcn2 logFC", "result": 0.4122}, {"measurement": "Leap2 logFC", "result": "−0.6713"}, {"measurement": "Lect2 logFC", "result": "−0.627"}, {"measurement": "Lgmn logFC", "result": 0.4846}, {"measurement": "Lgr4 logFC", "result": 0.269}, {"measurement": "Lman1 logFC", "result": 0.2986}, {"measurement": "Lmo4 logFC", "result": 0.3205}, {"measurement": "Lonp2 logFC", "result": "−0.4674"}, {"measurement": "Lpin1 logFC", "result": 0.2775}, {"measurement": "Lrp1 logFC", "result": 0.5051}, {"measurement": "Lrrc59 logFC", "result": 0.3772}, {"measurement": "Lrrfip1 logFC", "result": 0.4459}, {"measurement": "Lyst logFC", "result": 0.4093}, {"measurement": "Maff logFC", "result": 0.3553}, {"measurement": "Mak16 logFC", "result": 0.3171}, {"measurement": "Malat1 logFC", "result": 0.9206}, {"measurement": "Manf logFC", "result": 0.4689}, {"measurement": "Map2k3 logFC", "result": 0.4347}, {"measurement": "Mbl1 logFC", "result": "−0.713"}, {"measurement": "Mcm10 logFC", "result": "−0.4874"}, {"measurement": "Mdn1 logFC", "result": 0.318}, {"measurement": "Minos1 logFC", "result": "−0.4555"}, {"measurement": "Mlec logFC", "result": 0.3246}, {"measurement": "Mmp14 logFC", "result": 0.2889}, {"measurement": "Mpc1 logFC", "result": "−0.2818"}, {"measurement": "Mpc2 logFC", "result": "−0.4828"}, {"measurement": "Mrpl14 logFC", "result": "−0.459"}, {"measurement": "Msn logFC", "result": 0.2602}, {"measurement": "Msrb1 logFC", "result": "−0.599"}, {"measurement": "Mug2 logFC", "result": 0.3704}, {"measurement": "Mup2 logFC", "result": 1}, {"measurement": "Myo1e logFC", "result": 0.6143}, {"measurement": "Nab1 logFC", "result": 0.3342}, {"measurement": "Ndufa6 logFC", "result": "−0.6136"}, {"measurement": "Ndufa7 logFC", "result": "−0.5559"}, {"measurement": "Ndufa13 logFC", "result": "−0.4388"}, {"measurement": "Ndufb2 logFC", "result": "−0.5772"}]}]}
